In brackets after ≈: the same amount, converted by molar mass.
Tests used:
[1] = tested on: Streptococcus pneumoniae CMCC 31203; assay: In vivo antibacterial test, survival of infected BALB/c mice; conditions: BALB/c mice infected i.p. with Streptococcus pneumoniae, 5 mg per kg s.c. via neck for 3 consecutive days, deaths recorded until the seventh day; for responders at 5 mg/kg: CMCC31203, sc, 168 h, read-out: Animal survival rate
Haemophilus parasuis = assay: MIC by mini broth dilution technique (in vitro susceptibility); assay type: cell-based; conditions: Glaesserella parasuis; Haemophilus parasuis; broth dilution; read-out: MIC values Haemophilus parasuis
Protocol: (§1) in vitro tests of susceptibility of the compounds according to the present disclosure against bacterial strains commonly used in laboratories. In accordance with the Performance Standards for Antimicrobial Disk Susceptibility Tests: Approved Standard published by the US National Committee for Clinical Laboratory Standards, the antibactetial activities of compounds prepared according to examples 5 to 187 were tested. The MICs (minimum inhibitory concentration) of the medicaments prepared according to the examples on the following bacterial strains were measured through mini broth dilution technique. Staphylococcus aureus CVCC26003, Streptococcus equines CVCC556. Actinobacillus pleuropneumoniae CVCC262, Haemophilus parasuis, and Pasteurella multocida CVCC399, which were purchased from the Control Institute of Veterinary Bioproducts and Pharmaceuticals, China. Liquid culture medium: […] Solid culture medium: […] The strains were taken out of a regrigerator at −20° C. to be revived, and were spreaded by streaking on the solid culture medium with an inoculating loop. The inoculated culture medium was cultured at 35° C. in a constant temperature incubator for 20 h. Monoclonal antibodies were selected from a well-grown culture plate and streaked on the solid culture medium. The inoculated culture medium was cultured at 35° C. in the constant temperature incubator for 20 h. […] A 96-well plate was used, and 100 μl of DMSO was added into each of wells 2 to 11, and 200 μl of ready-prepared medicament solution was added into the 1st well, 100 μl of the medicament solution was extracted from the 1st well and added into the 2nd well. Double dilution was performed until the 11th well, thereby forming 11 gradients. In this case, compound of parent plate was prepared. 3 μl of double diluted medicament solution was extracted with a 12-channel pipettor and added into wells 1-11 of a new disposable 96-well culture plate. The 12th well thereof is a controll well. For each medicament, there are two adjacent rows which are parallel. The transferred compound plate was reserved for later use. […] The dilution ratio was recorded, and the bacterial liquid for the tests was diluted according to the recorded dilution ratio. Subsequently, the bacterial suspension and the liquid culture medium were diluted in the proportion of 1:200. The diluted solution was reserved for later use.

[2] = tested on: Streptococcus equines CVCC556; assay: as above; assay type: cell-based; conditions: Streptococcus equines CVCC556; broth dilution; read-out: MIC values Streptococcus equines CVCC556
Protocol: as §1

[3] = tested on: Pasteurella multocida CVCC399; assay: as above; assay type: cell-based; conditions: Pasteurella multocida CVCC399; broth dilution; read-out: MIC values Pasteurella multocida CVCC399
Protocol: as §1

[4] = tested on: Actinobacillus pleuropneumoniae CVCC262; assay: as above; assay type: cell-based; conditions: Actinobacillus pleuropneumoniae CVCC262, broth dilution; for MIC: read-out: MIC values Actinobacillus pleuropneumoniae CVCC262
Protocol: as §1

[5] = tested on: Staphylococcus aureus CVCC26003; assay: as above; assay type: cell-based; conditions: Staphylococcus aureus CVCC26003; broth dilution; read-out: MIC values Staphylococcus aureus CVCC26003
Protocol: in vitro tests of susceptibility of the compounds according to the present disclosure against bacterial strains commonly used in laboratories. In accordance with the Performance Standards for Antimicrobial Disk Susceptibility Tests: Approved Standard published by the US National Committee for Clinical Laboratory Standards, the antibactetial activities of compounds prepared according to examples 5 to 187 were tested. The MICs (minimum inhibitory concentration) of the medicaments prepared according to the examples on the following bacterial strains were measured through mini broth dilution technique. Staphylococcus aureus CVCC26003, Streptococcus equines CVCC556. Actinobacillus pleuropneumoniae CVCC262, Haemophilus parasuis, and Pasteurella multocida CVCC399, which were purchased from the Control Institute of Veterinary Bioproducts and Pharmaceuticals, China. Liquid culture medium: CAMHB. […] Solid culture medium: NINA prepared according to the specification of the final product. The strains were taken out of a regrigerator at −20° C. to be revived, and were spreaded by streaking on the solid culture medium with an inoculating loop. The inoculated culture medium was cultured at 35° C. in a constant temperature incubator for 20 h. Monoclonal antibodies were selected from a well-grown culture plate and streaked on the solid culture medium. The inoculated culture medium was cultured at 35° C. in the constant temperature incubator for 20 h. […] A 96-well plate was used, and 100 μl of DMSO was added into each of wells 2 to 11, and 200 μl of ready-prepared medicament solution was added into the 1st well, 100 μl of the medicament solution was extracted from the 1st well and added into the 2nd well. Double dilution was performed until the 11th well, thereby forming 11 gradients. In this case, compound of parent plate was prepared. 3 μl of double diluted medicament solution was extracted with a 12-channel pipettor and added into wells 1-11 of a new disposable 96-well culture plate. The 12th well thereof is a controll well. For each medicament, there are two adjacent rows which are parallel. The transferred compound plate was reserved for later use. […] The dilution ratio was recorded, and the bacterial liquid for the tests was diluted according to the recorded dilution ratio. Subsequently, the bacterial suspension and the liquid culture medium were diluted in the proportion of 1:200. The diluted solution was reserved for later use.

CCCNC[C@]1(O)[C@H](C)O[C@@H](O[C@H]2[C@H](C)[C@@H](O[C@@H]3O[C@H](C)C[C@H](N(C)C)[C@H]3O)[C@](C)(O)C[C@@H](C)NC[C@H](C)[C@@H](O)[C@](C)(O)[C@@H](CC)OC(=O)[C@@H]2C)C[C@@]1(C)OC [syzx-1] was tested, and the Animal survival rate [1] was 80% (8/10).
In the case of CCCCNC[C@]1(O)[C@H](C)OC(O[C@@H]2[C@@H](C)[C@@H](O[C@@H]3O[C@H](C)C[C@H](N(C)C)[C@H]3O)[C@](C)(O)C[C@@H](C)NC[C@@H](C)[C@H](O)[C@](C)(O)[C@H](CC)OC(=O)[C@@H]2C)C[C@@]1(C)OC (stereo partly drawn) [syzx-2], the responders at 5 mg/kg [1] is reported as 80%, the MIC (Haemophilus parasuis) is reported as 2 µg/mL (≈ 2.44 µM) and the MIC [2] is reported as 2 µg/mL (≈ 2.44 µM). For the same compound, the MIC [3] was 2 µg/mL (≈ 2.44 µM), the MIC [4] was 1 µg/mL (≈ 1.22 µM) and the MIC [5] was 4 µg/mL (≈ 4.88 µM).
With CC[C@@H]1OC(=O)[C@H](C)[C@H](OC2C[C@@](C)(OC)[C@](O)(CN(CC)CC)[C@H](C)O2)[C@@H](C)[C@@H](O[C@@H]2O[C@H](C)C[C@H](N(C)C)[C@H]2O)[C@](C)(O)C[C@@H](C)NC[C@@H](C)[C@H](O)[C@]1(C)O (stereo partly drawn) [syzx-3, (2R,3S,4R,5S,8R,10R,11R,12S,13S,14R)-13-[(2,6-dideoxy-3-C -methyl-3-O-methyl-4-C-[(diethylamino)methyl]-α-L-ribopyranosyl)oxy]-2-ethyl-3,4,10-trihydroxy-3,5,8,10,12,14-hexamethyl-11-[[3,4,6-trideoxy-3-(dimethylamino)-β-D-xylo-hexopyranosy]oxy]-1-oxa-7-azacyclopentadecan-15-one] the responders at 5 mg/kg [1] was 70%, the MIC (Haemophilus parasuis) was 0.125 µg/mL (≈ 0.152 µM) and the MIC [2] was 0.125 µg/mL (≈ 0.152 µM). It also gave an MIC [3] of 0.125 µg/mL (≈ 0.152 µM), an MIC [4] of 1 µg/mL (≈ 1.22 µM) and an MIC [5] of 0.5 µg/mL (≈ 0.61 µM).
With CC[C@@H]1OC(=O)[C@H](C)[C@H](OC2C[C@@](C)(OC)[C@](O)(CN3CCOCC3)[C@H](C)O2)[C@@H](C)[C@@H](O[C@@H]2O[C@H](C)C[C@H](N(C)C)[C@H]2O)[C@](C)(O)C[C@@H](C)NC[C@@H](C)[C@H](O)[C@]1(C)O (stereo partly drawn) [syzx-5, (2R,3S,4R,5S,8R,10R,11R,12S,13S,14R)-13-[(2,6-dideoxy-3-C-methyl-3-O-methyl-4-C-[(morpholinyl)methyl]-α-L-ribopyranosyl)oxy]-2-ethyl-3,4,10-trihydroxy-3,5,8,10,12,14-hexamethyl-11-[[3,4,6-trideoxy-3-(dimethylamino)-β-D-xylo-hexopyranosy]oxy]-1-oxa-7-azacyclopentadecan-15-one] the responders at 5 mg/kg [1] was 70%, the MIC (Haemophilus parasuis) was 0.5 µg/mL (≈ 0.599 µM) and the MIC [2] was no more than 0.25 µg/mL. The MIC [3] was 0.5 µg/mL (≈ 0.599 µM), the MIC [4] was 16 µg/mL (≈ 19.2 µM) and the MIC [5] was 0.5 µg/mL (≈ 0.599 µM).
Work on CC[C@@H]1OC(=O)[C@H](C)[C@H](OC2C[C@@](C)(OC)[C@](O)(CNC3CC3)[C@H](C)O2)[C@@H](C)[C@@H](O[C@@H]2O[C@H](C)C[C@H](N(C)C)[C@H]2O)[C@](C)(O)C[C@@H](C)NC[C@@H](C)[C@H](O)[C@]1(C)O (stereo partly drawn) [syzx-6, (2R3S,4R5S,8R,10R,11R,12S,13S,14R)-13-[(2,6-dideoxy-3-C-methyl-3-O-methyl-4-C-[(cyclopropylamino)methyl]-α-L-ribopyranosyl)oxy]-2-ethyl-3,4,10-trihydroxy-3,5,8,10,12,14-hexamethyl-11-[[3,4,6-trideoxy-3-(dimethylamino)-β-D-xylo-hexopyranosy]oxy]-1-oso-7-azacyclopentadecan-15-one] yielded a responders at 5 mg/kg [1] of 80%, an MIC (Haemophilus parasuis) of 0.125 µg/mL (≈ 0.155 µM) and an MIC [2] of 0.125 µg/mL (≈ 0.155 µM). The MIC [3] was 0.125 µg/mL (≈ 0.155 µM), the MIC [4] was 0.125 µg/mL (≈ 0.155 µM) and the MIC [5] was 0.125 µg/mL (≈ 0.155 µM).
For CCNC[C@]1(O)[C@H](C)OC(O[C@@H]2[C@@H](C)[C@@H](O[C@@H]3O[C@H](C)C[C@H](N(C)C)[C@H]3O)[C@](C)(O)C[C@@H](C)NC[C@@H](C)[C@H](O)[C@](C)(O)[C@H](CC)OC(=O)[C@@H]2C)C[C@@]1(C)OC (stereo partly drawn) [syzx-10, (2R,3S,4R,5S,8R,10R,11R,12S,13S,14R)-13-[(2,6-dideoxy-3-C-methyl-3-O-methyl-4-C-[(ethylamino)methyl]-α-L-ribopyranosyl)oxy]-2-ethyl-3,4,10-trihydroxy-3,5,8,10,12,14-hexamethyl-11-[[3,4,6-trideoxy-3-(dimethylamino)-β-D-xylo-hexopyranosy]oxy]-1-oxa-7-azacycopentadecan-15-one], the responders at 5 mg/kg [1] was 90%, the MIC (Haemophilus parasuis) was 1 µg/mL (≈ 1.26 µM) and the MIC [2] was 0.5 µg/mL (≈ 0.631 µM). It also gave an MIC [3] of no more than 0.25 µg/mL, an MIC [4] of 0.5 µg/mL (≈ 0.631 µM) and an MIC [5] of 0.5 µg/mL (≈ 0.631 µM).
CC[C@@H]1OC(=O)[C@H](C)[C@H](OC2C[C@@](C)(OC)[C@](O)(CNC(C)C)[C@H](C)O2)[C@@H](C)[C@@H](O[C@@H]2O[C@H](C)C[C@H](N(C)C)[C@H]2O)[C@](C)(O)C[C@@H](C)NC[C@@H](C)[C@H](O)[C@]1(C)O (stereo partly drawn) [syzx-11] showed a responders at 5 mg/kg [1] of 70%, an MIC (Haemophilus parasuis) of 0.5 µg/mL (≈ 0.62 µM) and an MIC [2] of no more than 0.25 µg/mL. For the same compound, the MIC [3] was no more than 0.25 µg/mL, the MIC [4] was 0.5 µg/mL (≈ 0.62 µM) and the MIC [5] was no more than 0.25 µg/mL.
Compound CC[C@@H]1OC(=O)[C@H](C)[C@H](OC2C[C@@](C)(OC)[C@](O)(CNCCOC)[C@H](C)O2)[C@@H](C)[C@@H](O[C@@H]2O[C@H](C)C[C@H](N(C)C)[C@H]2O)[C@](C)(O)C[C@@H](C)NC[C@@H](C)[C@H](O)[C@]1(C)O (stereo partly drawn) [syzx-25, (2R,3S,4R,5S,8R,10R,11R,12S,13S,14R)-13-[(2,6-dideoxy-3-C-methyl-3-O-methyl-4-C-[(2-methoxyethyl)amino-methyl]-α-L-ribopyranosyl)oxy]-2-ethyl-3,4,10-trihydroxy-3,5,8,10,12,14-hexamethyl-11-[[3,4,6-trideoxy-3-(dimethylamino)-β-D-xylo-hexopyranosy]oxy]-1-oxa-7-azacyclopentadecan-15-one] has an MIC (Haemophilus parasuis) of no more than 0.25 µg/mL, an MIC [2] of no more than 0.25 µg/mL and an MIC [3] of no more than 0.25 µg/mL. It also gave an MIC [4] of 16 µg/mL (≈ 19.5 µM) and an MIC [5] of no more than 0.25 µg/mL.
CC[C@@H]1OC(=O)[C@H](C)[C@H](OC2C[C@@](C)(OC)[C@](O)(CNCCOC)[C@H](C)O2)[C@@H](C)[C@@H](O[C@@H]2O[C@H](C)C[C@H](N(C)C)[C@H]2O)[C@](C)(O)C[C@@H](C)NC[C@@H](C)[C@H](O)[C@]1(C)O (stereo partly drawn) [syzx-58] was tested, and the responders at 5 mg/kg [1] was 80% and the “MIC values Actinobacillus pleuropneumoniae CVCC262” value [4] was 16 ug/mi.
For CCCNC[C@]1(O)[C@H](C)O[C@@H](O[C@H]2[C@H](C)[C@@H](O[C@@H]3O[C@H](C)C[C@H](N(C)C)[C@H]3O)[C@](C)(O)C[C@@H](C)N(CCC)C[C@H](C)[C@@H](O)[C@](C)(O)[C@@H](CC)OC(=O)[C@@H]2C)C[C@@]1(C)OC [syzx-101, (2R,3S,4R,5S,8R,10R,11R,12S,13S,14R)-13-[(2,6-dideoxy-3-C-methyl-3-O-methyl-4-C-[(n-propyl-amino)methyl]-α-L-ribopyranosyl)oxy]-2-ethyl-3,4,10-trihydroxy-3,5,8,10,12,14-hexamethyl-7-propyl-11-[[3,4,6-trideoxy-3-(dimethylamino)-β-D-xylo-hexopyranosy]oxy]-1-oxa-7-azacyclopentadecan-15-one], the Animal survival rate [1] was 90% (9/10).
